Reference: ChEMBL document CHEMBL3046858, “Synthesis and fungicidal activities of novel indene-substituted oxime ether strobilurins” (2008)

Legend:
Assay type in all cases: functional
Set-up in all cases: dose or concentration left out as unconfirmed
Colletotrichum lagenaria = test: Fungicidal activity against Colletotrichum lagenaria infected in compound pre-treated cucumber plants assessed as inhibition of fungal growth at 6.25 mg/ml measured 3 days post compound treatment
Blumeria graminis = test: Fungicidal activity against Blumeria graminis grown on compound pre-treated wheat seedlings assessed as inhibition of fungal growth at 6.25 mg/ml measured 7 days post fungal inoculation
[1] = tested on: Pseudoperonospora cubensis; test: Fungicidal activity against Pseudoperonospora cubensis grown on compound pre-treated cucumber leaves assessed as inhibition of fungal growth at 6.25 mg/ml measured 5 days post compound treatment
Botrytis cinerea = test: Fungicidal activity against Botryotinia fuckeliana assessed as inhibition of mycelial growth at 25 mg/ml measured after 48 hr
Phytophthora infestans = test: Fungicidal activity against Phytophthora infestans assessed as inhibition of mycelial growth at 25 mg/ml measured after 48 hr
Pyricularia oryzae = test: Fungicidal activity against Magnaporthe oryzae assessed as inhibition of mycelial growth at 25 mg/ml measured after 48 hr

CO/C=C(/C(=O)OC)c1ccccc1CO/N=C(\C)C1=Cc2ccc(Cl)cc2C1
inhibition (Colletotrichum lagenaria): 60% | inhibition (Blumeria graminis): 100% | inhibition [1]: 40% | inhibition (Botrytis cinerea): 80% | inhibition (Phytophthora infestans): 100% | inhibition (Pyricularia oryzae): 50%

CO/N=C(/C(=O)OC)c1ccccc1CO/N=C(\C)C1=Cc2ccccc2C1
inhibition (Colletotrichum lagenaria): 30% | inhibition (Blumeria graminis): 10% | inhibition [1]: 30% | inhibition (Botrytis cinerea): 80% | inhibition (Phytophthora infestans): 100% | inhibition (Pyricularia oryzae): 100%

CNC(=O)/C(=N/OC)c1ccccc1CO/N=C(\C)C1=Cc2ccc(Cl)cc2C1
inhibition (Colletotrichum lagenaria): 100% | inhibition (Blumeria graminis): 100% | inhibition [1]: 85% | inhibition (Botrytis cinerea): 100% | inhibition (Phytophthora infestans): 100% | inhibition (Pyricularia oryzae): 100%

CO/N=C(/C(=O)OC)c1ccccc1CO/N=C(\C)C1=Cc2ccc(F)cc2C1
inhibition (Colletotrichum lagenaria): 40% | inhibition (Blumeria graminis): 85% | inhibition [1]: 85% | inhibition (Botrytis cinerea): 50% | inhibition (Phytophthora infestans): 100% | inhibition (Pyricularia oryzae): 100%

CNC(=O)/C(=N/OC)c1ccccc1CO/N=C(\C)C1=Cc2ccccc2C1
inhibition (Colletotrichum lagenaria): 95% | inhibition (Blumeria graminis): 100% | inhibition [1]: 95% | inhibition (Botrytis cinerea): 100% | inhibition (Phytophthora infestans): 100% | inhibition (Pyricularia oryzae): 100%

CO/N=C(/C(=O)OC)c1ccccc1CO/N=C(\C)C1=Cc2c(Cl)cccc2C1
inhibition (Colletotrichum lagenaria): 100% | inhibition (Blumeria graminis): 100% | inhibition [1]: 90% | inhibition (Botrytis cinerea): 100% | inhibition (Phytophthora infestans): 100% | inhibition (Pyricularia oryzae): 100%

CO/C=C(/C(=O)OC)c1ccccc1CO/N=C(\C)C1=Cc2ccc(C)cc2C1
inhibition (Colletotrichum lagenaria): 70% | inhibition (Blumeria graminis): 100% | inhibition [1]: 80% | inhibition (Botrytis cinerea): 80% | inhibition (Phytophthora infestans): 100% | inhibition (Pyricularia oryzae): 100%

CO/C=C(/C(=O)OC)c1ccccc1CO/N=C(\C)C1=Cc2ccc(F)cc2C1
inhibition (Colletotrichum lagenaria): 60% | inhibition (Blumeria graminis): 100% | inhibition (Botrytis cinerea): 50% | inhibition (Phytophthora infestans): 100% | inhibition (Pyricularia oryzae): 100%

CO/N=C(/C(=O)OC)c1ccccc1CO/N=C(\C)C1=Cc2cc(Cl)ccc2C1
inhibition (Colletotrichum lagenaria): 90% | inhibition (Blumeria graminis): 95% | inhibition [1]: 95% | inhibition (Botrytis cinerea): 80% | inhibition (Phytophthora infestans): 100% | inhibition (Pyricularia oryzae): 100%

CO/N=C(/C(=O)OC)c1ccccc1CO/N=C(\C)C1=Cc2cc(F)ccc2C1
inhibition (Colletotrichum lagenaria): 40% | inhibition (Blumeria graminis): 100% | inhibition [1]: 70% | inhibition (Botrytis cinerea): 80% | inhibition (Phytophthora infestans): 100% | inhibition (Pyricularia oryzae): 50%

CO/N=C(/C(=O)OC)c1ccccc1CO/N=C(\C)C1=Cc2ccc(C)cc2C1
inhibition (Colletotrichum lagenaria): 90% | inhibition (Blumeria graminis): 100% | inhibition [1]: 100% | inhibition (Botrytis cinerea): 80% | inhibition (Phytophthora infestans): 100% | inhibition (Pyricularia oryzae): 100%

CO/C=C(/C(=O)OC)c1ccccc1CO/N=C(\C)C1=Cc2cc(Cl)ccc2C1
inhibition (Colletotrichum lagenaria): 30% | inhibition (Blumeria graminis): 100% | inhibition [1]: 30% | inhibition (Botrytis cinerea): 80% | inhibition (Phytophthora infestans): 100% | inhibition (Pyricularia oryzae): 100%

CO/N=C(/C(=O)OC)c1ccccc1COc1ccccc1C [KRESOXIM-METHYL]
inhibition (Colletotrichum lagenaria): 30% | inhibition (Blumeria graminis): 100% | inhibition [1]: 0% | inhibition (Botrytis cinerea): 100% | inhibition (Pyricularia oryzae): 100%

CNC(=O)/C(=N/OC)c1ccccc1CO/N=C(\C)C1=Cc2ccc(F)cc2C1
inhibition (Colletotrichum lagenaria): 100% | inhibition (Blumeria graminis): 100% | inhibition [1]: 100% | inhibition (Botrytis cinerea): 80% | inhibition (Phytophthora infestans): 100% | inhibition (Pyricularia oryzae): 100%

CO/C=C(/C(=O)OC)c1ccccc1CO/N=C(C)/C=C/c1ccc(Cl)cc1
inhibition (Colletotrichum lagenaria): 50% | inhibition (Blumeria graminis): 62.5% | inhibition [1]: 100% | inhibition (Botrytis cinerea): 80% | inhibition (Pyricularia oryzae): 100%

CO/N=C(/C(=O)OC)c1ccccc1CO/N=C(\C)C1=Cc2ccc(Cl)cc2C1
inhibition (Colletotrichum lagenaria): 65% | inhibition (Blumeria graminis): 90% | inhibition [1]: 50% | inhibition (Botrytis cinerea): 80% | inhibition (Phytophthora infestans): 100% | inhibition (Pyricularia oryzae): 100%

CNC(=O)/C(=N/OC)c1ccccc1CO/N=C(\C)C1=Cc2cc(F)ccc2C1
inhibition (Colletotrichum lagenaria): 30% | inhibition (Blumeria graminis): 100% | inhibition [1]: 30% | inhibition (Botrytis cinerea): 80% | inhibition (Phytophthora infestans): 80% | inhibition (Pyricularia oryzae): 100%

CNC(=O)/C(=N/OC)c1ccccc1CO/N=C(\C)C1=Cc2cc(Cl)ccc2C1
inhibition (Colletotrichum lagenaria): 98% | inhibition (Blumeria graminis): 100% | inhibition [1]: 90% | inhibition (Botrytis cinerea): 100% | inhibition (Phytophthora infestans): 80% | inhibition (Pyricularia oryzae): 80%

CO/N=C(\C(=O)OC)c1ccccc1CO/N=C(\C)c1cccc(C(F)(F)F)c1
inhibition (Colletotrichum lagenaria): 60% | inhibition (Blumeria graminis): 100% | inhibition [1]: 50% | inhibition (Botrytis cinerea): 100% | inhibition (Pyricularia oryzae): 100%

CO/C=C(/C(=O)OC)c1ccccc1CO/N=C(\C)C1=Cc2c(Cl)cccc2C1
inhibition (Colletotrichum lagenaria): 30% | inhibition (Blumeria graminis): 85% | inhibition [1]: 0% | inhibition (Botrytis cinerea): 80% | inhibition (Phytophthora infestans): 100% | inhibition (Pyricularia oryzae): 100%

CNC(=O)/C(=N/OC)c1ccccc1CO/N=C(\C)C1=Cc2c(Cl)cccc2C1
inhibition (Colletotrichum lagenaria): 80% | inhibition (Blumeria graminis): 100% | inhibition [1]: 100% | inhibition (Botrytis cinerea): 80% | inhibition (Phytophthora infestans): 100% | inhibition (Pyricularia oryzae): 100%

CNC(=O)/C(=N/OC)c1ccccc1CO/N=C(\C)C1=Cc2ccc(C)cc2C1
inhibition (Colletotrichum lagenaria): 100% | inhibition (Blumeria graminis): 100% | inhibition [1]: 100% | inhibition (Botrytis cinerea): 100% | inhibition (Phytophthora infestans): 100% | inhibition (Pyricularia oryzae): 100%
